Test results: patent publication US12318381B2, “Treatment for non-alcoholic fatty liver disease” (1GLOBE BIOMEDICAL CO., LTD., priority 2018, dated 2025)

Tested on: human HepG2 liver cells
Test: Intracellular fat content in palmitoleic acid-treated HepG2 cells (AdipoRed/Hoechst 33258 double staining, fluorometry)
Type: cell-based
Settings: for palmitoleic acid-induced increase of intracellular triglyceride content: HepG2, 0.8 mM palmitoleic acid in EMEM; for inhibitory effect on fat accumulation as compared to Compound 13-3: HepG2, 0.8 mM palmitoleic acid
Experimental: The effects on triglyceride accumulation from Compound 13-3-1, Compound 13-3-2, Compound 13-3-3, Compound 13-3-5, Compound 13-3-6, Compound 13-3-7, Compound 18-2, Compound 13-3-10 and Compound 13-3-11, as exemplary compounds of the invention, were tested. Human HepG2 liver cells were incubated with 0.8 mM palmitoleic acid in EMEM medium for 24 hours in the presence of 0.1 μM compounds of the invention or control vehicle, DMSO. Subsequently, the cells were washed with PBS and the intracellular fat content was measured by AdipoRed/Hoechst 33258 double staining, which was assessed by flourometry.
And the effects of Compound 001, Compound 004, Compound 006, Compound 013, Compound 132, Compound 133 and Compound 134, as further exemplary compounds of the invention, were also tested. Human HepG2 liver cells were incubated with 0.8 mM palmitoleic acid in EMEM medium for 48 hours in the presence of 0.1 μM compounds of the invention or control vehicle, DMSO. Subsequently, the cells were washed with PBS and the intracellular fat content was measured by AdipoRed/Hoechst 33258 double staining, which was assessed by flourometry.

[1] = 24 hours, 0.1 μM compound vs DMSO (FIG. 1B)
[2] = 48 hours, 0.1 μM compound vs DMSO (FIG. 1C)

Compound: Cc1[nH]c(/C=C2\C(=O)Nc3ccc(-c4csc(-c5cccnc5)n4)cc32)c(C)c1C(=O)N1CCN(C)CC1 [Compound 18-2]
- palmitoleic acid-induced increase of intracellular triglyceride content [1]: markedly suppressed
- inhibitory effect on fat accumulation as compared to Compound 13-3 (24 hours, 0.1 μM (FIG. 1B)): comparable or greater

Compound: CCN(CC)CCNC(=O)CCc1c(C)[nH]c(/C=C2\C(=O)Nc3ccc(-c4csc(-c5ccccc5)n4)cc32)c1C [Compound 13-3-7]
- palmitoleic acid-induced increase of intracellular triglyceride content [1]: markedly suppressed
- inhibitory effect on fat accumulation as compared to Compound 13-3 (24 hours, 0.1 μM (FIG. 1B)): comparable or greater

Compound: [2H]c1c([2H])c([2H])c(-c2nc(-c3ccc4c(c3)/C(=C/c3[nH]c(C)c(C(=O)NCCN(C([2H])([2H])C([2H])([2H])[2H])C([2H])([2H])C([2H])([2H])[2H])c3C)C(=O)N4)cs2)c([2H])c1[2H] [Compound 133]
- palmitoleic acid-induced increase of intracellular triglyceride content [2]: markedly suppressed
- inhibitory effect on fat accumulation as compared to Compound 13-3 (48 hours, 0.1 μM (FIG. 1C)): comparable or greater

Compound: [2H]C([2H])([2H])C([2H])([2H])N(CCNC(=O)c1c(C)[nH]c(/C=C2\C(=O)Nc3ccc(-c4csc(-c5ccccc5)n4)cc32)c1C)C([2H])([2H])C([2H])([2H])[2H] [Compound 134]
- palmitoleic acid-induced increase of intracellular triglyceride content [2]: markedly suppressed
- inhibitory effect on fat accumulation as compared to Compound 13-3 (48 hours, 0.1 μM (FIG. 1C)): comparable or greater

Compound: [2H]c1c([2H])c([2H])c(-c2nc(-c3ccc4c(c3)/C(=C/c3[nH]c(C)c(C(=O)NC([2H])([2H])C([2H])([2H])N(CC)CC)c3C)C(=O)N4)cs2)c([2H])c1[2H] [Compound 013]
- palmitoleic acid-induced increase of intracellular triglyceride content [2]: markedly suppressed
- inhibitory effect on fat accumulation as compared to Compound 13-3 (48 hours, 0.1 μM (FIG. 1C)): comparable or greater

Compound: [2H]c1c([2H])c([2H])c(-c2nc(-c3ccc4c(c3)/C(=C/c3[nH]c(C)c(C(=O)NCCN(CC)CC)c3C)C(=O)N4)cs2)c([2H])c1[2H] [Compound 132]
- palmitoleic acid-induced increase of intracellular triglyceride content [2]: markedly suppressed
- inhibitory effect on fat accumulation as compared to Compound 13-3 (48 hours, 0.1 μM (FIG. 1C)): comparable or greater

Compound: CCN(CC)CCNC(=O)c1c(C)[nH]c(/C=C2\C(=O)Nc3ccc(C4CCN(c5ccccc5)CC4)cc32)c1C [Compound 13-3-11]
- palmitoleic acid-induced increase of intracellular triglyceride content [1]: markedly suppressed
- inhibitory effect on fat accumulation as compared to Compound 13-3 (24 hours, 0.1 μM (FIG. 1B)): comparable or greater

Compound: CCN(CC)CCNC(=O)c1c(C)[nH]c(/C=C2\C(=O)Nc3ccc(C(=O)Nc4csc([N+](=O)[O-])n4)cc32)c1C [Compound 13-3-3]
- palmitoleic acid-induced increase of intracellular triglyceride content [1]: markedly suppressed
- inhibitory effect on fat accumulation as compared to Compound 13-3 (24 hours, 0.1 μM (FIG. 1B)): comparable or greater

Compound: CCN(CC)CCNC(=O)c1c(C)[nH]c(/C=C2\C(=O)Nc3ccc(-c4csc(N5CCCCC5)n4)cc32)c1C [Compound 13-3-2]
- palmitoleic acid-induced increase of intracellular triglyceride content [1]: markedly suppressed
- inhibitory effect on fat accumulation as compared to Compound 13-3 (24 hours, 0.1 μM (FIG. 1B)): comparable or greater

Compound: CCN(CC)CCC(=O)N1CCN(c2ccc(/C=C3\C(=O)Nc4ccc(-c5csc(-c6ccccc6)n5)cc43)cc2)CC1 [Compound 13-3-6]
- palmitoleic acid-induced increase of intracellular triglyceride content [1]: markedly suppressed
- inhibitory effect on fat accumulation as compared to Compound 13-3 (24 hours, 0.1 μM (FIG. 1B)): comparable or greater

Compound: [2H]C([2H])(NC(=O)c1c(C)[nH]c(/C=C2\C(=O)Nc3ccc(-c4csc(-c5ccccc5)n4)cc32)c1C)C([2H])([2H])N(CC)CC [Compound 001]
- palmitoleic acid-induced increase of intracellular triglyceride content [2]: markedly suppressed
- inhibitory effect on fat accumulation as compared to Compound 13-3 (48 hours, 0.1 μM (FIG. 1C)): comparable or greater

Compound: CCN(CC)CCNC(=O)c1c(C)[nH]c(/C=C2\C(=O)Nc3cccc(-c4cnc(OC)nc4)c32)c1C [Compound 13-3-5]
- palmitoleic acid-induced increase of intracellular triglyceride content [1]: markedly suppressed
- inhibitory effect on fat accumulation as compared to Compound 13-3 (24 hours, 0.1 μM (FIG. 1B)): comparable or greater

Compound: CCN(CC)CCNC(=O)c1c(C)[nH]c(/C=C2\C(=O)Nc3ccc(-c4csc(Nc5ccccc5)n4)cc32)c1C [Compound 13-3-1]
- palmitoleic acid-induced increase of intracellular triglyceride content [1]: markedly suppressed
- inhibitory effect on fat accumulation as compared to Compound 13-3 (24 hours, 0.1 μM (FIG. 1B)): comparable or greater

Compound: [2H]C([2H])([2H])C([2H])([2H])N(C([2H])([2H])C([2H])([2H])[2H])C([2H])([2H])C([2H])([2H])NC(=O)c1c(C)[nH]c(/C=C2\C(=O)Nc3ccc(-c4csc(-c5ccccc5)n4)cc32)c1C [Compound 004]
- palmitoleic acid-induced increase of intracellular triglyceride content [2]: markedly suppressed
- inhibitory effect on fat accumulation as compared to Compound 13-3 (48 hours, 0.1 μM (FIG. 1C)): comparable or greater

Compound: [2H]c1c([2H])c([2H])c(-c2nc(-c3ccc4c(c3)/C(=C/c3[nH]c(C)c(C(=O)NC([2H])([2H])C([2H])([2H])N(C([2H])([2H])C([2H])([2H])[2H])C([2H])([2H])C([2H])([2H])[2H])c3C)C(=O)N4)cs2)c([2H])c1[2H] [Compound 006]
- palmitoleic acid-induced increase of intracellular triglyceride content [2]: markedly suppressed
- inhibitory effect on fat accumulation as compared to Compound 13-3 (48 hours, 0.1 μM (FIG. 1C)): comparable or greater

Compound: CCN(CC)CCNC(=O)c1c(C)[nH]c(/C=C2\C(=O)Nc3cnc(-c4csc(-c5ccccc5)n4)cc32)c1C [Compound 13-3-10]
- palmitoleic acid-induced increase of intracellular triglyceride content [1]: markedly suppressed
- inhibitory effect on fat accumulation as compared to Compound 13-3 (24 hours, 0.1 μM (FIG. 1B)): comparable or greater
